Measurements as given in patent US8466181B2, “1,2,3-triazole-imidazole compounds” (Hoffmann-La Roche Inc., priority 2010, dated 2013).

The compounds below were run against T1, human GABA A receptor α5β3γ2 (GABA Aa5) (Homo sapiens, UniProt P18507+P31644) (assay: [3H]flumazenil competition binding, HEK293 cells expressing human receptors). Details: displacement of [3H]flumazenil 0.5 nM; HEK293 transiently transfected human receptors; means of two determinations; read-out: hKi (GABA Aa5).
T1 construct: expressed in transfected cells; host or cells: HEK293 cells, transiently transfected; membranes prepared
Method: The ability of compounds present invention to bind to GABA A receptor subtypes was determined by competition for [^3H]flumazenil (85 Ci/mmol; Roche) binding to HEK293 cells expressing rat (stably transfected) or human (transiently transfected) receptors of composition α1β2/3γ2, α2β3γ2, α3β3γ2 and α5β3γ2.
Cell pellets were suspended in Krebs-tris buffer (4.8 mM KCl, 1.2 mM CaCl2, 1.2 mM MgCl2, 120 mM NaCl, 15 mM Tris; pH 7.5; binding assay buffer), homogenized by polytron for ca. 20 sec on ice and centrifuged for 60 min at 4° C. (50000 g; Sorvall, rotor: SM24=20000 rpm). The cell pellets were resuspended in Krebs-tris buffer and homogenized by polytron for ca. 15 sec on ice. Protein was measured (Bradford method, Bio-Rad) and aliquots of 1 mL were prepared and stored at −80° C.
Assays were incubated to equilibrium for 1 hour at 4° C. and harvested onto GF/C uni-filters (Packard) by filtration using a Packard harvester and washing with ice-cold wash buffer (50 mM Tris; pH 7.5). After drying, filter-retained radioactivity was detected by liquid scintillation counting.
Ki values were calculated using Excel-Fit (Microsoft) and are the means of two determinations.
Representative test results, obtained by the above described assay measuring binding affinity to HEK293 cells expressing human (h) receptors, are shown in Table 1 below.

| SMILES | Ki |
| --- | --- |
| Cc1nnn(-c2ccc(F)cc2)c1-c1cn(-c2ccc(C(F)(F)F)cn2)cn1 [Example 34, 2-{4-[3-(4-Fluoro-phenyl)-5-methyl-3H-[1,2,3]triazol-4-yl]-imidazol-1-yl}-5-trifluoromethyl-pyridine] | 45.6 nM |
| Cn1nnc(-c2ccc(F)cc2)c1-c1cn(-c2ccc(C(=O)NC3CCOCC3)cc2)cn1 [Example 4, 4-{4-[5-(4-Fluoro-phenyl)-3-methyl-3H-[1,2,3]triazol-4-yl]-imidazol-1-yl}-N-(tetrahydropyran-4-yl)-benzamide] | 36.6 nM |
| Cc1nnn(-c2ccc(F)cc2)c1-c1cn(-c2ccc(C(=O)N3CCS(=O)(=O)CC3)cn2)cn1 [Example 44, (1,1-Dioxo-1,6-thiomorpholin-4-yl)-(6-{4-[3-(4-fluoro-phenyl)-5-methyl-3H-[1,2,3]triazol-4-yl]-imidazol-1-yl}-pyridin-3-yl)-methanone] | 29 nM |
| Cn1nnc(-c2ccc(F)cc2)c1-c1cn(-c2ccc(C(=O)NC3(C)COC3)cn2)cn1 [Example 13, 6-{4-[5-(4-Fluoro-phenyl)-3-methyl-3H-[1,2,3]triazol-4-yl]-imidazol-1-yl}-N-(3-methyl-oxetan-3-yl)-nicotinamide] | 14.6 nM |
| CC(=O)c1ccc(-n2cnc(-c3c(C)nnn3-c3ccc(F)cc3)c2)cc1 [Example 32, 1-(4-{4-[3-(4-Fluoro-phenyl)-5-methyl-3H-[1,2,3]triazol-4-yl]-imidazol-1-yl}-phenyl)-ethanone] | 25.9 nM |
| CC(=O)c1ccc(-n2cnc(-c3c(-c4ccc(F)cc4)nnn3C)c2)cc1 [Example 1, 1-(4-{4-[5-(4-Fluoro-phenyl)-3-methyl-3H-[1,2,3]triazol-4-yl]-imidazol-1-yl}-phenyl)-ethanone] | 27.2 nM |
| Cn1nnc(-c2ccc(F)cc2)c1-c1cn(-c2ccc(C(=O)NC3CCOCC3)cn2)cn1 [Example 12, 6-{4-[5-(4-Fluoro-phenyl)-3-methyl-3H-[1,2,3]triazol-4-yl]-imidazol-1-yl}-N-(tetrahydropyran-4-yl)-nicotinamide] | 33 nM |
| Cn1nnc(-c2ccc(F)cc2)c1-c1cn(-c2ccc(C(=O)N3CC4(COC4)C3)cn2)cn1 [Example 14, (6-{4-[5-(4-Fluoro-phenyl)-3-methyl-3H-[1,2,3]triazol-4-yl]-imidazol-1-yl}-pyridin-3-yl)-(2-oxa-6-aza-spiro[3.3]hept-6-yl)-methanone] | 37.6 nM |
| CC(C)NC(=O)c1ccc(-n2cnc(-c3c(-c4ccccc4Cl)nnn3C)c2)nc1 [Example 18, 6-(4-(4-(2-Chlorophenyl)-1-methyl-1H-1,2,3-triazol-5-yl)-1H-imidazol-1-yl)-N-isopropylnicotinamide] | 75.1 nM |
| Cn1nnc(-c2ccc(F)cc2)c1-c1cn(-c2ccc(C(N)=O)cn2)cn1 [Example 16, 6-(4-(4-(4-Fluorophenyl)-1-methyl-1H-1,2,3-triazol-5-yl)-1H-imidazol-1-yl)nicotinamide] | 12.1 nM |
| CC(C)NC(=O)c1ccc(-n2cnc(-c3c(-c4ccc(F)cc4)nnn3C)c2)cc1 [Example 3, 4-{4-[5-(4-Fluoro-phenyl)-3-methyl-3H-[1,2,3]triazol-4-yl]-imidazol-1-yl}-N-isopropyl-benzamide] | 21.1 nM |
| COC(=O)c1ccc(-n2cnc(-c3c(-c4ccc(F)cc4)nnn3C)c2)cc1 [Example 2, 4-{4-[5-(4-Fluoro-phenyl)-3-methyl-3H-[1,2,3]triazol-4-yl]-imidazol-1-yl}-benzoic acid methyl ester] | 41.2 nM |
| Cc1nnn(-c2ccc(F)cc2)c1-c1cn(-c2ccc(C(=O)NN3CCOCC3)cn2)cn1 [Example 45, 6-(4-(1-(4-Fluorophenyl)-4-methyl-1H-1,2,3-triazol-5-yl)-1H-imidazol-1-yl)-N-morpholinonicotinamide] | 69.4 nM |
| Cn1nnc(-c2ccccc2F)c1-c1cn(-c2ccc(C(F)(F)F)cc2)cn1 [Example 8, 4-(2-Fluorophenyl)-1-methyl-5-(1-(4-(trifluoromethyl)phenyl)-1H-imidazol-4-yl)-1H-1,2,3-triazole] | 84.3 nM |
| Cn1nnc(-c2ccccc2F)c1-c1cn(-c2ccc(C(=O)NN3CCOCC3)cn2)cn1 [Example 28, 6-(4-(4-(2-Fluorophenyl)-1-methyl-1H-1,2,3-triazol-5-yl)-1H-imidazol-1-yl)-N-morpholinonicotinamide] | 32.4 nM |

Second part, the compound after the results:

| Ki | SMILES |
| --- | --- |
| 20.8 nM | Cc1nnn(-c2ccc(F)cc2)c1-c1cn(-c2ccc(C(=O)NC(C)(C)CO)cn2)cn1 [Example 41, 6-(4-(1-(4-Fluorophenyl)-4-methyl-1H-1,2,3-triazol-5-yl)-1H-imidazol-1-yl)-N-(1-hydroxy-2-methylpropan-2-yl)nicotinamide] |
| 15.1 nM | Cc1nnn(-c2ccccc2F)c1-c1cn(-c2ccc(C(=O)NC(C)C)cn2)cn1 [Example 43, 6-(4-(1-(2-Fluorophenyl)-4-methyl-1H-1,2,3-triazol-5-yl)-1H-imidazol-1-yl)-N-isopropylnicotinamide] |
| 25.9 nM | Cc1nnn(-c2ccc(F)cc2)c1-c1cn(-c2ccc(C(=O)NC3CCOCC3)cn2)cn1 [Example 37, 6-{4-[3-(4-Fluoro-phenyl)-5-methyl-3H-[1,2,3]triazol-4-yl]-imidazol-1-yl}-N-(tetrahydropyran-4-yl)-nicotinamide] |
| 9.5 nM | Cn1nnc(-c2ccccc2F)c1-c1cn(-c2ccc(C(=O)NC3CC3)cn2)cn1 [Example 29, N-Cyclopropyl-6-(4-(4-(2-fluorophenyl)-1-methyl-1H-1,2,3-triazol-5-yl)-1H-imidazol-1-yl)nicotinamide] |
| 26.3 nM | COC(=O)c1ccc(-n2cnc(-c3c(C)nnn3-c3ccc(F)cc3)c2)nc1 [Example 35, Methyl 6-(4-(1-(4-fluorophenyl)-4-methyl-1H-1,2,3-triazol-5-yl)-1H-imidazol-1-yl)nicotinate] |
| 17.9 nM | Cc1nnn(-c2ccccc2F)c1-c1cn(-c2ccc(C(=O)NC3(C)COC3)cn2)cn1 [Example 50, 6-(4-(1-(2-Fluorophenyl)-4-methyl-1H-1,2,3-triazol-5-yl)-1H-imidazol-1-yl)-N-(3-methyloxetan-3-yl)nicotinamide] |
| 3.2 nM | Cc1nnn(-c2ccc(F)cc2)c1-c1cn(-c2ccc(C(=O)NC3CC3)cn2)cn1 [Example 42, N-Cyclopropyl-6-(4-(1-(4-fluorophenyl)-4-methyl-1H-1,2,3-triazol-5-yl)-1H-imidazol-1-yl)nicotinamide] |
| 51.7 nM | Cc1nnn(-c2ccccc2F)c1-c1cn(-c2ccc(C(=O)NC(C)(C)CO)cn2)cn1 [Example 47, 6-(4-(1-(2-Fluorophenyl)-4-methyl-1H-1,2,3-triazol-5-yl)-1H-imidazol-1-yl)-N-(1-hydroxy-2-methylpropan-2-yl)nicotinamide] |
| 86 nM | Cn1nnc(-c2ccccc2F)c1-c1cn(-c2ccc(C(=O)O)cn2)cn1 [Example 21, 6-(4-(4-(2-Fluorophenyl)-1-methyl-1H-1,2,3-triazol-5-yl)-1H-imidazol-1-yl)nicotinic acid] |
| 90 nM | Cc1nnn(-c2ccccc2F)c1-c1cn(-c2ccc(C(=O)N3CC4(COC4)C3)cn2)cn1 [Example 49, (6-(4-(1-(2-Fluorophenyl)-4-methyl-1H-1,2,3-triazol-5-yl)-1H-imidazol-1-yl)pyridin-3-yl)(2-oxa-6-azaspiro[3.3]heptan-6-yl)methanone] |
| 10.9 nM | Cc1nnn(-c2ccccc2F)c1-c1cn(-c2ccc(C(=O)NC3CC3)cn2)cn1 [Example 52, N-Cyclopropyl-6-(4-(1-(2-fluorophenyl)-4-methyl-1H-1,2,3-triazol-5-yl)-1H-imidazol-1-yl)nicotinamide] |
